Consider 6 compounds from US4365989A, “2-Thiocyanomethylthio-4,4-dialkyl-5-substituted-thiazoline fungicides” (Chevron Research Company, priority 1982, dated 1982).

As usually defined, the inhibition is the relative decrease from the control value, in per cent.

Test [1] deals with Rhizoctonia solani. Briefly: Mycelial inhibition, Rhizoctonia. Type of test: cell-based. Particulars: 24 hours, relative to standard DIFOLATAN, read-out: Mycelial inhibition, % Standard, Rhizoc. The method, then:
(§1) A number of the compounds of the present invention were evaluated for in-vitro fungicidal effectiveness by means of a mycelial inhibition test. This test is designed to measure the fungitoxic activity of fungicidal chemicals in terms of their degree of inhibition of mycelium growth. Each compound to be tested was dissolved in acetone to 500 ppm concentration. Paper strips were infused with the particular mycelium growth by covering the paper with a potato dextrose broth culture of mycelial suspension. The papers were then placed on potato dextrose agar plates and sprayed by means of a microsprayer with the fungicidal solution. The treated paper strips were incubated at 25° C. and the data is taken after 24 hours. Fungicidal activities are measured by a zone of inhibited mycelial growth from the center of the paper strip. The effectiveness of the compounds tested for fungicidal activity is reported in Table IIa for those compounds which were effective in inhibiting mycelial growth. The activity is reported in terms of [formula]

The test system of test [2] is Fusarium Moniliforme. Briefly: Mycelial inhibition, Fusarium. The class given is cell-based. Particulars: Fusarium verticillioides, 24 hours, relative to standard DIFOLATAN
The method, then: as §1

Test [3] has as its system Botrytis Cineria. Briefly: Mycelial inhibition, Botrytis. Type of test: cell-based. Particulars: 24 hours, relative to standard DIFOLATAN
Here is the method:
as §1

In test [4] the test system is Aspergillus Niger. Briefly: Mycelial inhibition, Aspergillus. Conditions: 24 hours, relative to standard DIFOLATAN, read-out: Mycelial inhibition, % Standard, Asper. The class given is cell-based. Here is the method: as §1
The test system of test [5] is Lambsquarter (Chenopodium album). Briefly: Pre-emergent herbicidal test, Lambsquarter. Type of test: in vivo. Particulars: 504 h, pre-emergence, 33 micrograms/cm^2, 3 weeks, read-out: Herbicidal Activity Pre-Emergence % Control L'Qtr. The method, then: (§2) An acetone solution of the test compound was prepared by mixing 750 mg of the compound, 220 mg of a nonionic surfactant and 25 ml of acetone. This solution was added to approximately 125 ml of water containing 156 mg of surfactant.
(§3) Seeds of the test vegetation were planted in a pot of […] and the test solution was sprayed uniformly onto the soil surface at a dose of 33 micrograms/cm^2. The pot was watered and placed in a greenhouse. […] At the end of this period, the herbicidal effectiveness of the compound was rated based on the physiological observations. A 0-to-100 scale was used, 0 representing no phytotoxicity, 100 representing complete kill.

Test [6] has the same test system. Briefly: Post-emergent herbicidal test, Lambsquarter. Type of test: in vivo. Particulars: 504 h, post-emergence, 33 micrograms/cm^2, 3 weeks, read-out: Herbicidal Activity Post-Emergence % Control L'Qtr.
Test [7] concerns Pigweed (Amaranthus retraflexus). Briefly: Pre-emergent herbicidal test, Pigweed. Conditions: 504 h, pre-emergence, 33 micrograms/cm^2, 3 weeks. The class given is in vivo. The method, then: as §2, §3
Test [8] has the same test system. Briefly: Post-emergent herbicidal test, Pigweed. Particulars: 504 h, post-emergence, 33 micrograms/cm^2, 3 weeks. Type of test: in vivo.
Test [9] concerns Crabgrass (Digitaria sanguinalis). Briefly: Pre-emergent herbicidal test, Crabgrass. The class given is in vivo. Conditions: 504 h, pre-emergence, 33 micrograms/cm^2, 3 weeks. The method, then: as §2, §3
Test [10] shares this test system. Briefly: Post-emergent herbicidal test, Crabgrass. Type of test: in vivo. Conditions: 504 h, post-emergence, 33 micrograms/cm^2, 3 weeks.
In test [11] the test system is Soybean. Briefly: Pre-emergent herbicidal test, Soybean. Type of test: in vivo. Particulars: Glycine max, 504 h; pre-emergence; 33 micrograms/cm^2; 3 weeks; read-out: Herbicidal Activity Pre-Emergence % Control Soybean. Here is the method: as §2, §3
The subject of test [12] is Soybean. Briefly: Post-emergent herbicidal test, Soybean. Type of test: in vivo. Conditions: Glycine max, 504 h; post-emergence; 33 micrograms/cm^2; 3 weeks; read-out: Herbicidal Activity Post-Emergence % Control Soybean.
For test [13], the system named is Spirulina maxima. Briefly: Algae control, Spirulina. The class given is cell-based. Conditions: Limnospira maxima, 7 to 10 days, read-out: Algicidal Activity % Control Spirulina. The method, then:
(§4) Representative compounds of the invention were tested as aquatic herbicides and algicides by the following method. The weed test species were Lemna minor, Elodea canadensis and the algae used was Spirulina maxima.
(§5) An acetone solution of the test compound and a small amount of an alkylarylpolyoxyethylene glycol-containing surfactant was prepared. This solution was mixed with a nutrient solution in quantity sufficient to give a concentration of 2 ppm. Eight oz. plastic cups were filled with 150 ml of this solution. A sample of the test, Lemna and Elodea, was added together to each cup. Forty ml of Spirulina culture with the 2 ppm treatment was placed in 11/2 oz plastic cups (#4 glass vials used after June 9, 1980). The containers were then placed in an illuminated environment maintained at a temperature of about 20° C. for incubation. The containers were observed periodically for growth (as compared to an untreated check). The effectiveness of the test compound was determined based on a final observation of growth after 7 to 10 days. The results of the test on a 0-to-100 basis--0 indicating no effectiveness and 100 indicating complete effectiveness--are reported in Table IV.

Test [14] has as its system Lemna minor. Briefly: Aquatic weeds control, Lemna. Type of test: in vivo. Conditions: 7 to 10 days, read-out: Algicidal Activity % Control Lemna. The method, then:
as §4, §5

In test [15] the test system is Elodea canadensis. Briefly: Aquatic weeds control, Elodea. Type of test: in vivo. Conditions: 7 to 10 days, read-out: Algicidal Activity % Control Elodea. Here is the method:
as §4, §5

In the case of `C=C1SC(SCSC#N)=NC12CCCCC2` [Compound 8], the inhibition at 500 ppm in test [1] came to 71%; in [2] it was 0%; in [3], 26%; in test [4], 77%. Moreover, the pest or weed control at 33 µg/cm2 stood at 0% in test [5]; 40% in [6]; 0% in test [7]; 50% in test [8]; 0% in test [9]; 20% in [10]. For the same compound, the plant injury at 33 µg/cm2 in test [11] is 0%; in test [12], 33%. Moreover, the results for the activity at 2 ppm in test [13], in [14] and in test [15] were 70%, 60% and 80%, respectively.
As for `C=C1SC(SCSC#N)=NC1(CC)CC` [Compound 6, 2-thiocyanomethylthio-4,4-diethyl-5-methylenethiazoline], the inhibition at 500 ppm turned out to be 89% in test [1], 31% in test [2], 30% in [3] and 77% in test [4]. Further, the pest or weed control at 33 µg/cm2 in test [5] turned out to be 73%; in [6], 55%; in test [7], 73%; in test [8] it was 35%; in test [9], 0%; in [10], 45%. The plant injury at 33 µg/cm2 in [11] is 30%; in test [12], 15%. Besides, the activity at 2 ppm in test [13] amounted to 75%; in test [14], 0%; in test [15], 0%.
For `CCC1(CC)N=C(SCSC#N)SC1=CBr` [Compound 5, 2-thiocyanomethylthio-4,4-diethyl-5-bromo-methylenethiazoline], the inhibition at 500 ppm is 82% in [1], 0% in test [2], 0% in test [3] and 50% in test [4]. For the same compound, the pest or weed control at 33 µg/cm2 in test [5] came to 0%; in test [6] it was 33%; in [7] it was 0%; in test [8] it was 35%; in test [9] it was 0%; in test [10] it was 30%. Also, the figures for the plant injury at 33 µg/cm2 in [11] and in [12] were 0% and 20%, respectively. Also, the activity at 2 ppm in test [13] came out at 40%; in [14] it was 0%; in test [15] it was 55%.
Regarding `C=C1SC(SCSC#N)=NC1(C)C` [Compound 7, 2-Thiocyanomethylthio-4,4-dimethyl-5-methylenethiazoline], the inhibition at 500 ppm in test [1] turned out to be 39%; in test [2], 32%; in test [3] it was 82%; in [4], 32%. Moreover, the pest or weed control at 33 µg/cm2 in test [5] stood at 60%; in [6], 55%; in test [7] it was 50%; in test [8], 35%; in test [9], 0%; in test [10], 35%. Moreover, the plant injury at 33 µg/cm2 was 45% in test [11] and 0% in test [12]. In addition, the activity at 2 ppm turned out to be 90% in test [13], 90% in test [14] and 85% in test [15].
Regarding `CC1(C)N=C(SCSC#N)SC1=C(Cl)Cl` [Compound 2, 2-thiocyanomethylthio-4,4-dimethyl-5-dichloromethylenethiazoline], the inhibition at 500 ppm was 71% in test [1], 29% in test [2], 32% in test [3] and 107% in [4]. The pest or weed control at 33 µg/cm2 in test [5] is 0%; in test [6], 40%; in test [7], 0%; in test [8] it was 55%; in [9] it was 0%; in [10], 25%. For the same compound, the plant injury at 33 µg/cm2 is 0% in test [11] and 10% in test [12]. Moreover, the activity at 2 ppm in test [13] is 45%; in [14], 50%; in test [15] it was 70%.
For the compound `CC1(C)N=C(SCSC#N)SC1=CSc1ccc(Cl)cc1` [Compound 1, 2-thiocyanomethylthio-4,4-dimethyl-5-(4-chlorophenylthio)methylenethiazoline], the inhibition at 500 ppm in [1], in test [2], in test [3] and in [4] was 0% throughout. In addition, the pest or weed control at 33 µg/cm2 in test [5], in test [6], in test [7], in [8], in test [9] and in [10] was 0% throughout. For the same compound, the plant injury at 33 µg/cm2 in test [11] and in [12] was 0% each time. The activity at 2 ppm in test [13], in test [14] and in [15] was 0% in each case.
